# pIC50: −log10 of the molar value. Read-outs that look alike come from different tables or passages of the source.
# Columns and labels:
# P450 3A4 = P450 3A4 (Homo sapiens (Human), UniProt P08684); assay: Cytochrome P450 isoenzyme inhibition assay (P450 3A4, midazolam); type: in vitro ADME; details: human liver microsomes, Midazolam as substrate; read-out: CYP3A4 inhibition IC50
# Method: For the following cytochrome P450 isoenzymes, these substrates and metabolic reactions are monitored: P450 3A4: hydroxylation of Midazolam (MDZ).
# The final incubation volume contains TRIS buffer (0.1 M), MgCl2 (5 mM), a certain concentration of human liver microsomes dependent on the P450 isoenzyme measured (P450 3A4: 0.1 mg/ml) and a certain concentration of the individual substrate for each isoenzyme (P450 3A4: Midazolam 5 μM).
# The effect of the test compound is determined at five different concentrations in duplicate (e.g. highest concentration 50 μM with subsequent serial 1:4 dilutions) or without test compound (high control). Following a short preincubation period, reactions are started with the cofactor (NADPH, 1 mM) and stopped by cooling the incubation down to 8° C. and subsequently by addition of one volume of ACN. An internal standard solution—usually the stable isotope of the formed metabolite—is added after quenching of incubations. Peak area analyte (=metabolite formed) and internal standard is determined by LC-MS/MS. The resulting peak area ratio analyte to internal standard in these incubations is compared to a control activity containing no test compound. Within each of the assay runs, the IC50 of a positive control inhibitor dependent on the P450 isoenzyme measured (P450 3A4: ketoconazole) is determined. The assay results are plotted against compound concentrations to calculated IC50 values (half maximal inhibitory concentrations) for inhibitory compounds utilizing Software IDBS E-WorkBook.
# Table 4: Inhibition of P450 isoenzyme 3A^4.
# human hepatocytes = assay: Metabolic stability in human hepatocytes; details: 1 μM test compound, 50% human serum, percentage of liver blood flow
# Method: The metabolic degradation of a test compound is performed with hepatocytes in suspension. After recovery from cryopreservation, human hepatocytes are diluted in Dulbecco's modified eagle medium (supplemented with 3.5 μg glucagon/500 mL, 2.5 mg insulin/500 mL, 3.75 mg hydrocortisone/500 mL, 50% human serum) to obtain a final cell density of 1.0×10^6 cells/mL. Following a preincubation in a cell culture incubator (37° C., 10% CO2), test compound dissolved in DMSO is mixed with the hepatocyte suspension, resulting in a final test compound concentration of 1 μM and a final DMSO concentration of 0.05%.
# The cell suspension is incubated at 37° C. (cell culture incubator, horizontal shaker) and samples are removed from the incubation after 0, 0.5, 1, 2, 4 and 6 hours. Samples are quenched with acetonitrile (containing internal standard) and pelleted by centrifugation. The supernatant is transferred to a deep-well plate and prepared for analysis of decline of parent compound by HPLC-MS/MS.
# The percentage of remaining test compound is calculated using the peak area ratio (test compound/internal standard) of each incubation time point relative to the time point 0 peak area ratio. The log-transformed data are plotted versus incubation time, and the absolute value of the slope obtained by linear regression analysis is used to estimate in vitro half-life (T1/2).
# CL_[sequence]_IN VIVO[mL/min/kg]=(CL_[sequence][μL/min/10^6cells]×hepatocellularity[10^6cells/g liver]×liver factor[g/kg body weight])/1000
# Hepatic in vivo blood clearance (CL) is predicted according to the well-stirred liver model considering an average liver blood flow (QH) of 20.7 mL/min/kg:
# CL[mL/min/kg]=CL_[sequence]_IN VIVO[mL/min/kg]×hepatic blood flow[mL/min/kg]/(CL_[sequence]_IN VIVO[mL/min/kg]+hepatic blood flow[mL/min/kg])
# Results are expressed as percentage of hepatic blood flow:
# QH[%]=CL[mL/min/kg]/hepatic blood flow[mL/min/kg])
# SOS1 and KRAS G12C = SOS1 and KRAS G12C (Homo sapiens (Human), UniProt Q07889); assay: KRAS::SOS1 AlphaScreen binding assay (KRAS G12C); details: average of at least two measurements
# Method: (§1) Low IC50 values are indicative of high potency of the SOS1 inhibitor compound in this assay setting:
# (§2) • GST-tagged SOS1 (564_1049_GST_TEV_ECO) produced in-house • 6xHis-Tev-K-RasG12D/G12C(1-169)Avi produced in-house • GDP (Sigma Cat No G7127) • AlphaLISA Glutathione Acceptor Beads (PerkinElmer, Cat No AL109) • AlphaScreen Streptavidin Donor Beads (PerkinElmer Cat No 6760002) • Assay plates: Proxiplate-384 PLUS, white (PerkinElmer, Cat No 6008289)
# (§3) [formula] • KRAS::SOS1 GDP mix: • 7.5 nM (final assay concentration) K-RasG12C, 10 nM (final assay concentration) K-RasG12D, 10 μM (final assay concentration) GDP and 5 nM (final assay concentration) GST-SOS1 are mixed in assay buffer prior to use and kept at rt. Bead mix: • AlphaLISA Glutathione Acceptor Beads and AlphaScreen Streptavidin Donor Beads are mixed in the dark in assay buffer at a concentration of 10 μg/mL (final assay concentration) each prior to use and kept at rt.
# (§4) Compounds are diluted to a final start concentration of 100 μM and are tested in duplicate. Assay-ready plates (ARPs) are generated using an Access Labcyte Workstation with a Labcyte Echo 550 or 555 acoustic dispenser. For compound a start concentration of 100 μM, 150 nL of compound solution is transferred per well in 11 concentrations in duplicate with serial 1:5 dilutions.
# (§5) The assay is run using a fully automated robotic system in a darkened room below 100 Lux. 10 μL of KRAS::SOS1 GDP mix is added into columns 1-24 to the 150 nL of compound solution (final dilution in the assay 1:100, final DMSO concentration 1%).
# (§6) After a 30 minute incubation time, 5 μL of bead mix is added into columns 1-23. Plates are kept at rt in a darkened incubator. After a further 60 minutes incubation, the signal is measured using a PerkinElmer Envision HTS Multilabel Reader using the AlphaScreen specifications from PerkinElmer. Each plate contains the following controls:
# (§7) diluted DMSO+KRAS::SOS1 GDP mix+bead mix
# (§8) diluted DMSO+KRAS::SOS1 GDP mix
# (§9) Result calculation: IC50 values are calculated and analyzed using a 4 parametric logistic model.
# (§10) Table 1: Inhibition values for KRAS G12C as well as for KRAS G12D. […] The value indicates an average value of at least two measurements.
# SOS1 and KRAS G12D = SOS1 and KRAS G12D (Homo sapiens (Human), UniProt Q07889); assay: KRAS::SOS1 AlphaScreen binding assay (KRAS G12D); details: average of at least two measurements
# Method: as §1, §2, §3, §4, §5, §6, §7, §8, §9, §10
# CYP3A4 = CYP3A4 (Homo sapiens (Human), UniProt P08684); assay: Mechanism-based inhibition of CYP3A4 assay (MBI 3A4); type: in vitro ADME; details: human liver microsomes, midazolam substrate, hydroxy-midazolam formation after 30 min preincubation relative to 0 min; for inhibition at 30 min: human, probe midazolam 15 μM (hydroxy-midazolam formation), read-out: MBI inhibition % ctrl. [%] with MDZ
# Method: Mechanism-Based Inhibition of CYP3A4 assay (MBI 3A4): The mechanism-based inhibition towards CYP3A4 is assayed in human liver microsomes with midazolam as substrate. The test compounds and water control (wells w/o test compound) are preincubated in presence of NADPH (1 mM) with human liver microsomes (0.2 mg/mL) at a concentration of 0, 5 and 25 μM for 0, 10 and 30 min. After preincubation, the incubate is diluted 1:10 (to 0.02 mg/mL) and the substrate midazolam (15 μM) is added for the main incubation (10 min). The main incubation is quenched with ACN and the formation of hydroxy-midazolam is quantified via LC/MS-MS. The formation of hydroxy-midazolam from the 30 min preincubation relative to the formation from the 0 min preincubation is used as a readout. Values of less than 100% mean that the substrate midazolam is metabolized to a lower extent upon 30 min preincubation compared to 0 min preincubation. In general, low effects upon 30 min preincubation are desired (corresponding to values close to 100%/not different to the values determined with water control).
# Table 5: Mechanism-based inhibition of P450 isoenzyme 3A4 with midazolam as substrate.
# [1] = test system: ERK phosphorylation in NCI-H358 SOS2 KO cells (KRAS G12C); assay: Erk phosphorylation assay; type: cell-based, human; details: EGF stimulated, average of at least two measurements, read-out: pERK IC50
# Method: Low IC50 values are indicative of high potency of the SOS1 inhibitor compounds in this assay setting.
# ERK phosphorylation assays are performed using the following human cell line: • NCI-H358 SOS2 KO (Hofmann, Gmachl, Ramharter et al, Cancer Discov. 2021, 11(1):142-15): human lung cancer with a KRAS G12C mutation;
# NCI-H358 SOS2 KO are seeded at 50000 cells per well in 60 μL of DMEM with 2% FBS, in Greiner TC 384 plates. The cells are incubated overnight in an incubator at 37° C. and 5% CO2 in a humidified atmosphere. 60 nL compound solution (10 mM DMSO stock solution) is then added using a Beckman Coulter Labcyte Echo 550 device. After 50 min incubation in the aforementioned incubator, 5 nl EGF are added to each well for a final concentration of approx. 8 ng/mL using a Beckman Coulter Labcyte Echo 550 device and cells are incubated for another 10-15 minutes before lysis. The medium is removed, and the cells are lysed by addition of 20 μL of 1.6-fold lysis buffer from the AlphaLISA SureFire Ultra pERK1/2 (Thr202/Tyr204) Assay Kit with added protease inhibitors. After 20 minutes of incubation at rt with shaking, 6 μL of each lysate sample is transferred to a 384-well Proxiplate and analyzed for pERK (Thr202/Tyr204) with the AlphaLISA SureFire Ultra pERK1/2 (Thr202/Tyr204) Assay Kit. 3 μL Acceptor Mix and 3 μL Donor Mix are added under subdued light and incubated for 2 h at rt in the dark, before the signal is measured on a Perkin Elmer Envision plate reader using 384 AlphaScreen settings for Proxiplates. Data are fitted by iterative calculation with variable hill slope. The sigmoidal curve slope is fitted using a default fitting curve to ascertain IC50 values.
# Table 2: Erk Phosphorylation assay. The value indicates an average value of at least two measurements.
# [2] = Homo sapiens, NCI-H358, NCI-H358 SOS2 KO cells
# CYP3A4, sequence (P08684 whole entry): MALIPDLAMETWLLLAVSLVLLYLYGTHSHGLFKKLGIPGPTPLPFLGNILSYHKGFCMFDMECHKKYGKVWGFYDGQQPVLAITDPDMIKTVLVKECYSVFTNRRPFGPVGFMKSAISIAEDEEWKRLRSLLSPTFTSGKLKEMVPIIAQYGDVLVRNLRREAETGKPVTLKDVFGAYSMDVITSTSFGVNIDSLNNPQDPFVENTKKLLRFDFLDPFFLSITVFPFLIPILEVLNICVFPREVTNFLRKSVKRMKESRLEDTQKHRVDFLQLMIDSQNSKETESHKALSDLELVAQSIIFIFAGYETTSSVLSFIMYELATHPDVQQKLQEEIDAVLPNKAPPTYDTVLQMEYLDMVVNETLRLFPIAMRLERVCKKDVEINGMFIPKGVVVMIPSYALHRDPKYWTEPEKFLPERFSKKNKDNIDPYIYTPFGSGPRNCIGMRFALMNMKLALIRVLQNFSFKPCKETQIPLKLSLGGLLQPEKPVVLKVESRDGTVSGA
# P450 3A4, sequence (P08684 whole entry): as above
# SOS1 and KRAS G12D, sequence (Q07889 564-1049, stated change not applied): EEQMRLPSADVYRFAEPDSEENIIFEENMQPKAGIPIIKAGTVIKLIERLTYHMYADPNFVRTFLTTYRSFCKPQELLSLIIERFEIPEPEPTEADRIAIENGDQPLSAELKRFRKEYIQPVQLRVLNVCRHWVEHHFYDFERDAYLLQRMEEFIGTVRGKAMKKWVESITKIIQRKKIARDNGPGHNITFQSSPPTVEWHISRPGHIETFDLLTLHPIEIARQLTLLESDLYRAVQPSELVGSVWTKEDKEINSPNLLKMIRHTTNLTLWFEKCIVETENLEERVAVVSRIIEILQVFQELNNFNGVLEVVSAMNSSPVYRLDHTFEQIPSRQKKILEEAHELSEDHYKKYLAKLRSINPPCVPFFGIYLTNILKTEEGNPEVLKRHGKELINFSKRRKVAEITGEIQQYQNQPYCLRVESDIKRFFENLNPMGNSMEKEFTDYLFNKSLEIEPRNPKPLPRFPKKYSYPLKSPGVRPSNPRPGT
# SOS1 and KRAS G12C, sequence (Q07889 564-1049, stated change not applied): as above
pIC50 (P450 3A4),Hepatic clearance - QH[%] in human hepatocytes (human hepatocytes) [%],IC50 (SOS1 and KRAS G12C) [nM],IC50 (SOS1 and KRAS G12D) [nM],MBI inhibition % ctrl. [%] with MDZ (CYP3A4) [%],pIC50 ([1]; NCI-H358 SOS2 KO cells),inhibition at 30 min (CYP3A4) [%],"pIC50 [1, 2]",Compound
< 4.30,20,82,70,,,99,6.47,C[C@@H](NC(=O)c1cc(N2CCC(N3CC[C@](C)(O)C3)CC2)c2ncnn2c1)c1cccc(C(F)F)c1F [Example E4]
< 4.30,16,65,57,,,103,6.49,C[C@@H](NC(=O)c1cc(N2CCC(N3CC[C@@](C)(O)C3)CC2)c2ncnn2c1)c1cccc(C(F)F)c1F [Example E5]
< 4.30,31,50,43,,,106,6.61,C[C@@H](NC(=O)c1cc(N2CCC(N(C)CC(C)(C)O)CC2)c2ncnn2c1)c1cccc(C(F)F)c1F [Example E7]
< 4.30,18,70,69,,,97,6.73,C[C@@H](NC(=O)c1cc(N2CCC(N3CCC4(CC4)C3)CC2)c2ncnn2c1)c1cccc(C(F)F)c1F [Example E8]

# The remaining lines, values behind:
Compound,pIC50 (P450 3A4),Hepatic clearance - QH[%] in human hepatocytes (human hepatocytes) [%],IC50 (SOS1 and KRAS G12C) [nM],IC50 (SOS1 and KRAS G12D) [nM],MBI inhibition % ctrl. [%] with MDZ (CYP3A4) [%],pIC50 ([1]; NCI-H358 SOS2 KO cells),inhibition at 30 min (CYP3A4) [%],"pIC50 [1, 2]"
"C[C@@H](NC(=O)c1cc(N2CCC(NC3COCC3O)CC2)c2ncnn2c1)c1cccc(C(F)(F)F)c1F (single isomer, unassigned) [Example trans-E42b]",< 4.30,16,37,36,94,6.82,,
"C[C@@H](NC(=O)c1cc(N2CCC(NC3CCCC3(C)O)CC2)c2ncnn2c1)c1cccc(C(F)(F)F)c1F (single isomer, unassigned) [Example trans-E53b]",< 4.30,28,33,35,,6.54,91,
"C[C@@H](NC(=O)c1cc([C@H]2CC[C@H](N3CCC(F)C(O)C3)CC2)c2ncnn2c1)c1cccc(C(F)F)c1F (single isomer, unassigned) [Example trans-E61b]",< 4.30,30,32,32,101,6.86,,
"C[C@@H](NC(=O)c1cc([C@H]2CC[C@H](N3CCC(F)C(O)C3)CC2)c2ncnn2c1)c1cccc(C(F)(F)F)c1F (single isomer, unassigned) [Example trans-E70b]",< 4.30,19,36,42,,6.77,107,
"C[C@@H](NC(=O)c1cc([C@H]2CC[C@H](N3CCC(F)C(O)C3)CC2)c2ncnn2c1)c1cccc(C(F)F)c1F (single isomer, unassigned) [trans-E61a]",< 4.30,40,39,41,,6.41,93,
C[C@@H](NC(=O)c1cc(N2CCC(N3CCC[C@@H]3CO)CC2)c2ncnn2c1)c1cccc(C(F)F)c1F [Example E1],< 4.30,17,33,30,,,98,6.93
C[C@@H](NC(=O)c1cc(N2CCC(N3CC[C@@H](O)C3)CC2)c2ncnn2c1)c1cccc(C(F)F)c1F [Example E2],< 4.30,15,55,46,,,95,7.04
C[C@@H](NC(=O)c1cc(N2CCC(N3C[C@H](O)C4(CC4)C3)CC2)c2ncnn2c1)c1cccc(C(F)F)c1F [Example E3],< 4.30,24,59,50,,,94,6.81
C[C@@H](NC(=O)c1cc(N2CCC(N3CCC[C@H]3CO)CC2)c2ncnn2c1)c1cccc(C(F)F)c1F [Example E6],< 4.30,16,36,37,,,102,6.61
CO[C@H]1CCN(C2CCN(c3cc(C(=O)N[C@H](C)c4cccc(C(F)F)c4F)cn4ncnc34)CC2)C1 [Example E10],< 4.30,29,74,67,,,97,6.67
